Source: patent US9907848B2, “Methods and compositions for treatment of metabolic disorders” (Beth Israel Deaconess Medical Center, Inc., priority 2010, dated 2018)
Entries after “also recorded” stand apart in the source; their conditions may differ.

Assays:
iNKT cells [1] = experiment: αGC treatment of obese wt mice on HFD, metabolic outcome 4 days post-injection; format: in vivo
Experimental: (§1) The prototypical ligand for iNKT cells is the glycolipid, αGC. We investigated whether αGC treatment could activate the residual iNKT cells in obesity and improve metabolic outcome (FIGS. 16A-16H).
(§2) Wt, Jα18 KO and CD1d KO were weighed weekly and food intake was monitored on HFD. Body fat content was measured by an X-ray emitting DEXA scan, performed after mice were sacrificed. Whole abdominal adipose fat pads were weighed after dissecting out the testes and lymph nodes. After 6 weeks on HFD, fasting blood glucose (OneTouch Ultra) and insulin concentrations (Crystal Chem ELISA) were measured. For glucose tolerance tests, fasted (10 h) mice received 1 g glucose per kg body weight intraperitoneally (i.p); for insulin resistance, the homeostatic model assessment of insulin resistance (HOMA-IR) was used (Matthews et al., Diabetologia 28:412-419, 1985) was used: fasting blood glucose×fasting insulin/22.5. Two samples of 5 mm liver were collected and fixed in formalin overnight, prior to paraffin mounting and preparation of ME or Oil Red 0 stained slides for measurement of fatty liver or adipose prior to αGC (or control) treatment. For H&E and Oil Red O staining, biopsies were viewed using the 20× objective. Degree of fatty liver was measured by Oil Red O staining intensity around 5 portal tract areas per slide.
Adipocyte size and number were measured by osmium and immunohistochemistry. Two samples of 20-30 mg of adipose tissue per mouse were immediately fixed in osmium tetroxide (3% solution in collidine 0.05 M), minced into 1 mm pieces and incubated in the dark at room temperature for 48 hours. Adipose cell size and number were determined by a Beckman Coulter Multisizer III Counter with a 400 μm aperture. Adipose tissue was also fixed in formalin overnight, prior to paraffin mounting and preparation of H&E slid s. Adipocyte number was counted per field of view, in ten fields per sample and related back to the original weight of each fat pad.
(§3) Mice were injected i.p. with 2 μg of αGC or vehicle, and mice were sacrificed after 5 hours or 4 days, at the time of metabolic analysis. Single cell suspension of splenocytes, LMNC, and adipose tissue SVF were obtained as before, but with the inclusion of Brefeldin A in all media. Single cell suspensions of splenocytes or liver mononuclear cells (LMC) were stained firstly with cell surface labeling anti-CD3 mAb and αGC-loaded CD1d tetramer. Cells were then fixed, permeabilized, and intracellular cytokine stained for IL-4, IL-10 and IFN-γ using Cytofix/cytoperm (BD Biosciences), according to the manufacturer's instructions.

iNKT cells [2] = experiment: Effect of αGC on iNKT cells in fat, liver and spleen of obese mice; format: in vivo
Experimental: Single cell suspensions of splenocytes, liver mononuclear cells (LMNCs), and adipose SVF were blocked with anti-CD16/32 mAb and stained for 30 min at 4° C. in the dark with PBS-57-loaded or empty CD1d tetramer-PE (NIH tetramer facility) and CD3 (1:150 dilution, eBiosciences). Macrophages were labeled with phycoerythrin-conjugated antibody to F4/80 (1 in 100) and CD11c (1 in 200) and CD206 (1 in 200) to differentiate M1 from M2 macrophages in the SVF as previously described.
as §3

iNKT cells [3] = experiment: αGC treatment of obese Jα18 KO mice (no iNKT cells), control; format: in vivo; settings: 4 days post αGC
Experimental: as §1, §2, §3

iNKT cells [4] = experiment: αGC treatment of normal weight mice on SFD; format: in vivo
Experimental: as §1
as §2, with “After 6 weeks on HFD, fasting blood glucose (OneTouch Ultra) and insulin concentrations (Crystal Chem ELISA) were measured.” left out
Mice were injected i.p. with 2 μg of αGC or vehicle, and mice were sacrificed after 5 hours or 4 days, at the time of metabolic analysis. […]

iNKT [5] = experiment: iNKT cytokine production in response to αGC in vivo (wt mice)
Experimental: (§4) To verify the cytokine profile, iNKT were isolated (>90% purity) and stimulated in vitro with αGC.
as §3

iNKT [6] = experiment: In vitro iNKT cytokine production stimulated by αGC-loaded CD1d+ C1R cells; format: cell-based, mice; settings: isolated iNKT stimulated with αGC
Source text: as §4

IL-4 and IL-10 = experiment: Neutralizing IL-4 and IL-10 prior to αGC treatment, metabolic outcomes after 4 days; format: in vivo, mice; settings: IL-4 and IL-10 neutralized before αGC injection
Source text: As adipose tissue iNKT cells are skewed towards IL-4 and IL-10 production, we next investigated whether IL-4 and IL-10 were mediators of this protection seen by αGC treatment. We neutralized IL-4 and IL-10 prior to αGC treatment and measured metabolic outcomes after 4 days.

iNKT cells [7] = experiment: Effect of αGC on iNKT cells in fat, liver and spleen of obese mice; format: in vivo; settings: after 6 hours
iNKT [8] = settings: literature statement; cited from earlier work

CCCCCCCCCCCCCCCCCCCCCCCCCC(=O)NC(COC1OC(CO)C(O)C(O)C1O)C(O)C(O)CCCCCCCCCCCCCC (stereo not drawn) [αGC, α-galactosylceramide]
% body fat (DEXA) (iNKT cells [1]; 4 days post αGC injection): lost a significant amount; also recorded: decreased
adipocyte number (iNKT cells [1]; 4 days post αGC injection): did not affect cell number; also recorded: did not differ
adipocyte size (iNKT cells [1]; 4 days post αGC injection): rapid and dramatic reduction in adipocyte size; also recorded: decreased
circulating leptin (iNKT cells [1]; 4 days post αGC injection): significantly improved; also recorded: decreased
glucose tolerance test (GTT) (iNKT cells [1]; 4 days post αGC injection): improved GTT, returning it to almost normal
insulin resistance / insulin sensitivity (iNKT cells [1]; 4 days post αGC injection): significantly improved insulin resistance; also recorded: increased insulin sensitivity
lean mass (DEXA) (iNKT cells [1]; 4 days post αGC injection): did not differ
serum IL-4 (iNKT cells [1]; 4 days post αGC injection): non-significant increase
serum IL-6 (iNKT cells [1]; 4 days post αGC injection): decreased serum IL-6
serum TNFα (iNKT cells [1]; 4 days post αGC injection): increased serum TNF-a
serum triglycerides (circulating TGL) (iNKT cells [1]; 4 days post αGC injection): significantly improved; also recorded: decreased circulating TGL
fat deposition in the liver (Oil Red O) (iNKT cells [1]; 4 days post αGC injection, vs PBS): fat droplets were smaller and less frequent
fasting blood glucose (iNKT cells [1]; 4 days post αGC injection, vs PBS control): marked reduction of fasting blood glucose
overall weight (iNKT cells [1]; one i.p. injection of αGC, continued HFD for 4 days, vs PBS/vehicle): lost a significant amount of overall weight
IFNγ production by adipose tissue iNKT cells (iNKT cells [2]; 4-5 hours, vs spleen and liver): little IFNγ
IL-4 and IL-10 production by adipose tissue iNKT cells (iNKT cells [2]; 4-5 hours, vs spleen and liver): more IL-4 and IL-10
expansion of iNKT cells in fat (adipose tissue) (iNKT cells [2]; 4 days post-injection): expansion was greater in fat; also recorded: dramatic expansion
cytokine production by adipose tissue iNKT cells (iNKT cells [2]; day 4 post-injection): still producing cytokines at day 4; also recorded: produced IL-4, IL-10, and IFN-γ at day 4; also recorded: remained actively producing cytokines
expansion of iNKT cells in spleen and liver (iNKT cells [2]; day 4 post-injection): expansion of iNKT cells by day 4
cytokine production by liver and spleen iNKT cells (iNKT cells [2]; within 4-5 hours): produced both IFNγ and IL-4
GTT (iNKT cells [3]): not seen; also recorded: did not affect
fasting glucose (iNKT cells [3]): improvement in fasting glucose was not seen; also recorded: did not affect
weight loss (iNKT cells [3]): weight loss was not seen
GTT (iNKT cells [4]): did not affect
fasting glucose (iNKT cells [4]): did not affect
IL-4 production by adipose iNKT in vivo (iNKT [5]; following injection of αGC): slightly less IL-4
IL-10 production by adipose iNKT in vivo (iNKT [5]; following injection of αGC, vs liver and spleen): significantly more IL-10
IFNγ production by adipose iNKT in vivo (iNKT [5]; following injection of αGC, vs liver or spleen): did not produce IFNγ
IFNγ production by spleen and liver iNKT in vivo (iNKT [5]; response to αGC): copious IFNγ
IL-4 production by spleen and liver iNKT in vivo (iNKT [5]; response to αGC): less IL-4
IL-10 production by spleen and liver iNKT in vivo (iNKT [5]; response to αGC): very low levels of IL-10
IL-10 production by adipose iNKT in vitro (iNKT [6]; vs liver or spleen): significantly more IL-10 per cell
IFNγ production by adipose iNKT in vitro (iNKT [6]; vs splenic or hepatic iNKT): low levels of IFNγ; also recorded: significantly less IFNγ
GTT (IL-4 and IL-10): prevented improvement
fasting glucose (IL-4 and IL-10): prevented improvement
invariant TCR expression on iNKT cells (iNKT cells [7]): down-regulation of the invariant TCR after 6 hours
activation of iNKT (iNKT [8]): activate iNKT
